In ChEMBL document CHEMBL1938311, “Potent adjuvantic activity of a CCR1-agonistic bis-quinoline” (Bioorg Med Chem Lett, 2012):
The source made the active and inactive calls. No cut-off for these calls is given here.

Key:
HEK293 [1] = experiment: Transactivation of NF-kappaB expressed in HEK293 cells co-transfected TLR2/TLR3/TLR4/TLR5/TLR7/TLR8/TLR9/Nod-1 by alkaline phosphatase reporter gene assay; type: cell-based
Mus musculus [2] = experiment: Adjuvantic activity in CF-1 mouse assessed as increase in bovine alpha-lactalbumin-elicited antibodies production at 50 ug, im followed by booster dose administered on day 14 measured after 21 days by surface-plasmon resonance; type: functional, organism-based
Mus musculus [3] = experiment: Adjuvantic activity in CF-1 mouse assessed as increase in bovine alpha-lactalbumin-elicited IgG1 production at 50 ug, im followed by booster dose administered on day 14 measured after 21 days; type: functional, organism-based
Mus musculus [4] = experiment: Adjuvantic activity in CF-1 mouse assessed as increase in bovine alpha-lactalbumin-elicited IgG2a production at 50 ug, im followed by booster dose administered on day 14 measured after 21 days; type: functional, organism-based
Blood [5] = experiment: Pro-inflammatory activity in human whole blood assessed as IL-8 production upto 50 uM; type: functional, tissue-based
Blood [6] = experiment: Pro-inflammatory activity in human whole blood assessed as IL-12 production upto 50 uM; type: functional, tissue-based
Blood [7] = experiment: Pro-inflammatory activity in human whole blood assessed as IL-6 production upto 50 uM; type: functional, tissue-based
Blood [8] = experiment: Antiinflammatory activity in human whole blood assessed as IL-10 production upto 50 uM; type: functional, tissue-based
Blood [9] = experiment: Pro-inflammatory activity in human whole blood assessed as IL-18 production upto 50 uM; type: functional, tissue-based
Blood [10] = experiment: Pro-inflammatory activity in human whole blood assessed as IL1-beta production upto 50 uM; type: functional, tissue-based
Blood [11] = experiment: Pro-inflammatory activity in human whole blood assessed as TNF-alpha production upto 50 uM; type: functional, tissue-based
[12] = target: T1, C-C chemokine receptor type 3 (Homo sapiens) (UniProt P51677); experiment: Agonist activity at CCR3 expressed in CHO cells at 10^-6 to 10^-5 M by cellular dielectric spectroscopy; type: functional, cell-based
T1 sequence (whole entry): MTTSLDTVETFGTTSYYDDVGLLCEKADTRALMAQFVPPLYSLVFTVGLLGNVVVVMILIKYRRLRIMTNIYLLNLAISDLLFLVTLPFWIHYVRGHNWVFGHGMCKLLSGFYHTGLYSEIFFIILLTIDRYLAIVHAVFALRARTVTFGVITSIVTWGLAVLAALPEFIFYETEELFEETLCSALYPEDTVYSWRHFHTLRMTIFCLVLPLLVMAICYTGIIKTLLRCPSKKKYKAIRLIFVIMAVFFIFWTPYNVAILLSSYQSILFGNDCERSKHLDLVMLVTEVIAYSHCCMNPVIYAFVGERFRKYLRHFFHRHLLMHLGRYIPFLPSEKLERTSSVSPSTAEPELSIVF

[13] = target: T2, C-C chemokine receptor type 1 (Homo sapiens, UniProt P32246); experiment: Agonist activity at human CCR1 expressed in CHO cells by cellular dielectric spectroscopy; type: functional, cell-based
T2 sequence (P32246 whole entry): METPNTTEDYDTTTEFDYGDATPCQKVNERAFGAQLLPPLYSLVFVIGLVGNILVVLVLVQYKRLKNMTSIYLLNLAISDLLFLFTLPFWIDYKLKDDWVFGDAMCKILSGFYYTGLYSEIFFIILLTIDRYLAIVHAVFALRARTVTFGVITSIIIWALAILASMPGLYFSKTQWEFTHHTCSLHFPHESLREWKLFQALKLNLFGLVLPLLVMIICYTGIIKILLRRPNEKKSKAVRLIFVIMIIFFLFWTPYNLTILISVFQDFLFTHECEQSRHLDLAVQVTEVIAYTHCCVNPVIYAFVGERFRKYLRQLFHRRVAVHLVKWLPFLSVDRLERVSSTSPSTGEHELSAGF

Mus musculus [14] = experiment: Toxicity in CF-1 mouse assessed as mortality up to 100 mg/kg, ip administered as single dose measured at 48 hrs; type: organism-based; parameters: dose 100 mg/kg, route intraperitoneal; settings: in vivo
Salmonella typhimurium [15] = experiment: Mutagenic activity in Salmonella Typhimurium TA100-S9 by Ames test; type: toxicity, organism-based; settings: salmonella enterica subsp. enterica serovar typhimurium
Salmonella typhimurium [16] = experiment: Mutagenic activity in Salmonella Typhimurium TA98-S9 by Ames test; type: toxicity, organism-based; settings: salmonella enterica subsp. enterica serovar typhimurium
[17] = target: T3, C-X-C chemokine receptor type 2 (Homo sapiens) (UniProt P25025); experiment: Agonist activity at CXCR2 expressed in CHO cells at 10^-6 to 10^-5 M by cellular dielectric spectroscopy; type: functional, cell-based
T3 sequence (whole entry): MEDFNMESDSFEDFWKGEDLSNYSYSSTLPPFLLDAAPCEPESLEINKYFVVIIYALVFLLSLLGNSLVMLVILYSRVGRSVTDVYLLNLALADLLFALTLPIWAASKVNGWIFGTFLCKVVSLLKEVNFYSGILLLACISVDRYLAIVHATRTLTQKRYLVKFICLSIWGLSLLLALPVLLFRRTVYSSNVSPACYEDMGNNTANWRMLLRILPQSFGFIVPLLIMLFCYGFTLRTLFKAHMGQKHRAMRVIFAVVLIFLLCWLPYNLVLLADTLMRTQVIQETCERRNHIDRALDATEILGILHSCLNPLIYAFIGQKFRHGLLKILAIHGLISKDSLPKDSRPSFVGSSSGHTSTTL

[18] = target: C-C chemokine receptor type 2 (Homo sapiens) (UniProt P41597); experiment: Agonist activity at CCR2 expressed in CHO cells at 10^-6 to 10^-5 M by cellular dielectric spectroscopy; type: functional, cell-based
C-C chemokine receptor type 2 (Homo sapiens), sequence (P41597 whole entry, looked up): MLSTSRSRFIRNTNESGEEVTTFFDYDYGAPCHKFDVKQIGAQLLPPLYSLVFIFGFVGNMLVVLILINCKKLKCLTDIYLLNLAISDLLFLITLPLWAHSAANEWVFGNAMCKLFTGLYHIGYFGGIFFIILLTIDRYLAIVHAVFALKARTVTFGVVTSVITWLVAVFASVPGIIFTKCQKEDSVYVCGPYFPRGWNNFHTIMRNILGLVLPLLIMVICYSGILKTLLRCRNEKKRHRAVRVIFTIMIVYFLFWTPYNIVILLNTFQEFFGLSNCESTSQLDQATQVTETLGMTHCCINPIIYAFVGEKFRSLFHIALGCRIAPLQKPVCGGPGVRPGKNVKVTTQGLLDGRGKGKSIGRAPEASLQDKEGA

PBMC [19] = experiment: Modulation of inflammation in human PBMC by transcriptional profiling; type: functional, cell-based
HEK293 [20] = experiment: Transactivation of NF-kappaB expressed in HEK293 cells by alkaline phosphatase reporter gene assay; type: cell-based
[21] = target: C-X-C chemokine receptor type 4 (Homo sapiens) (UniProt P61073); experiment: Agonist activity at CXCR4 expressed in CHO cells at 10^-6 to 10^-5 M by cellular dielectric spectroscopy; type: functional, cell-based
C-X-C chemokine receptor type 4 (Homo sapiens), sequence (P61073 whole entry): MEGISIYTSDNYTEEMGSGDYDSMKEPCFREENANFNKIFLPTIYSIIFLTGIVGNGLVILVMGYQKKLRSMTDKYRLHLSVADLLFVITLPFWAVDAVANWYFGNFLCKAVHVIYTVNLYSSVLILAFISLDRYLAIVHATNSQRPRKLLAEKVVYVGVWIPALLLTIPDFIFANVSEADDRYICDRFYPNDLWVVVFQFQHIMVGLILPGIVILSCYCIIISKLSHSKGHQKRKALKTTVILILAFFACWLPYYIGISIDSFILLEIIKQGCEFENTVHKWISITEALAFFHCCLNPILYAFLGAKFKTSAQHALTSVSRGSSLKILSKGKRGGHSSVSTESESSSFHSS

PBMC [22] = experiment: Immunostimulatory activity against human PBMC by transcriptional profiling; type: functional, cell-based
Salmonella typhimurium [23] = experiment: Mutagenic activity in Salmonella Typhimurium TA1535-S9 by Ames test; type: toxicity, organism-based; settings: salmonella enterica subsp. enterica serovar typhimurium

`Clc1ccc2c(NCCCCCCCCCCCCNc3ccnc4cc(Cl)ccc34)ccnc2c1` was tested, and the Activity (HEK293 [1]) was “inactive”.

With `Clc1ccc2c(NCCNc3ccnc4cc(Cl)ccc34)ccnc2c1` the Activity (HEK293 [1]) was “inactive”.

`Clc1ccc2c(NCCCCCCCCNc3ccnc4cc(Cl)ccc34)ccnc2c1` was tested, and the Activity (HEK293 [1]) was “inactive”.

In the case of `CCN(CC)CCCC(C)Nc1ccnc2cc(Cl)ccc12` (stereo not given), the Activity (HEK293 [1]) is reported as “inactive”.

With `CCCCCCCCCCCCCCCC(=O)OCC(CSC[C@H](N)C(=O)N[C@@H](CO)C(=O)O)OC(=O)CCCCCCCCCCCCCCC` (stereo not given in full) the Activity (Mus musculus [2]) was “Active”, the Activity (Mus musculus [3]) was “Active” and the Activity (Mus musculus [4]) was “Active”.

`Clc1ccc2c(NCCCCCCNc3ccnc4cc(Cl)ccc34)ccnc2c1` was tested, and the Activity (HEK293 [1]) was “inactive”.

With `CCCc1nc2c(N)nc3ccccc3c2s1` the Activity (Blood [5]) was “Active”, the Activity (Blood [6]) was “Active” and the Activity (Blood [7]) was “Active”. For the same molecule, the Activity (Blood [8]) was “Active”, the Activity (Blood [9]) was “Active” and the Activity (Blood [10]) was “Active”. The Activity (Blood [11]) was “Active”.

With `CCCCCCCCCCCCCC(=O)OC(CCCCCCCCCCC)CC(=O)N[C@H]1[C@H](OC[C@H]2O[C@H](O)[C@H](NC(=O)CC(O)CCCCCCCCCCC)[C@@H](OC(=O)CC(O)CCCCCCCCCCC)[C@@H]2O)O[C@H](CO)[C@@H](OP(=O)(O)O)[C@@H]1OC(=O)CC(CCCCCCCCCCC)OC(=O)CCCCCCCCCCCCC` (stereo not given in full) the Activity (Mus musculus [2]) was “Active”, the Activity (Mus musculus [3]) was “Active” and the Activity (Mus musculus [4]) was “Active”.

With `Clc1ccc2c(NCCCCNc3ccnc4cc(Cl)ccc34)ccnc2c1` the Activity (Blood [5]) was “inactive”, the Activity [12] was “inactive” and the Activity (Mus musculus [2]) was “Active”. For the same molecule, the EC50 [13] was 2 µM, the Activity (Blood [6]) was “inactive” and the Activity (Mus musculus [3]) was “Active”. For the same molecule, the Activity (Mus musculus [14]) was “Non-toxic”, the Activity (Salmonella typhimurium [15]) was “Non-toxic” and the Activity (HEK293 [1]) was “inactive”. For the same molecule, the Activity (Salmonella typhimurium [16]) was “Non-toxic”, the Activity (Blood [7]) was “inactive” and the Activity [17] was “inactive”. The Activity [18] was “inactive”, the Activity (PBMC [19]) was “inactive” and the Activity (Blood [8]) was “inactive”. For the same molecule, the Activity (HEK293 [20]) was “Active”, the Activity (Blood [9]) was “inactive” and the Activity [21] was “inactive”. For the same molecule, the Activity (PBMC [22]) was “inactive”, the Activity (Blood [10]) was “inactive” and the Activity (Salmonella typhimurium [23]) was “Non-toxic”. For the same molecule, the Activity (Mus musculus [4]) was “Active” and the Activity (Blood [11]) was “inactive”.

In the case of `Clc1ccc2c(NCCCCCCCNc3ccnc4cc(Cl)ccc34)ccnc2c1`, the Activity (HEK293 [1]) is reported as “inactive”.

For `Clc1ccc2c(NCCCCCCCCCCNc3ccnc4cc(Cl)ccc34)ccnc2c1`, the Activity (HEK293 [1]) was “inactive”.

`Clc1ccc2c(NCCCCCNc3ccnc4cc(Cl)ccc34)ccnc2c1` was tested, and the Activity (HEK293 [1]) was “inactive”.

With `Clc1ccc2c(NCCCNc3ccnc4cc(Cl)ccc34)ccnc2c1` the Activity (HEK293 [1]) was “inactive”.
